In patent publication US20150056209A1, “PEPTIDE MIMOTOPES TO OXIDATION SPECIFIC EPITOPES” (The Regents of the University of California, priority 2012, published 2015):
Bridges are numbered along the chain shown (N, C = ends). Where no end group is shown, it is not given here.

Assays:
LRO4 [1] = assay: Chemiluminescent ELISA, binding of LRO4 to plated or captured peptides; parameters: species or system murine; conditions: peptides directly plated at increasing concentrations; LRO4 5 μg/mL
Experimental: (§1) Binding of mAb as well as plasma Abs to respective antigens was measured by chemiluminescent ELISA. Antigens were coated at 5 μg/mL in PBS/EDTA (pH 7.4). Synthetic peptides were directly coated at 10 μg/mL (P1) or 5 μg/mL (P2) in 0.1M NaHCO3 buffer (pH 8.6), unless indicated differently. Biotinylated peptides were immobilized at indicated concentrations in 0.1M NaHCO3 buffer (pH 8.6) on wells pre-coated with 10 μg/mL neutravidin (Pierce, Rockford, Ill., USA). Ab binding was measured using alkaline phosphatase (AP) labeled secondary Abs (described below) followed by chemiluminescent detection. For the detection of human autoAbs, a 1:400 plasma dilution was used. For human assays, internal controls consisting of high and low standard plasma samples were included on each microtiter plate to detect potential variations between microtiter plates. The intra-assay coefficients of variation for all assays were 10 to 14%.
(§2) The following secondary Abs were used: Alkaline Phosphatase (AP)-labeled goat anti-mouse IgM (μ-chain specific), IgG (γ-chain specific), IgG1 (Sigma-Aldrich) and IgG2c (Southern Biotech). For the detection of human autoAbs AP-labeled goat anti human IgG (γ-chain specific) and IgM (μ-chain specific) (Sigma-Aldrich) were used. Biotin-conjugated Abs were detected with AP-conjugated neutravidin (1:10,000; Pierce).

LRO4 [2] = assay: Competition immunoassays for LRO4 binding; parameters: species or system murine; conditions: 0.5 μg/mL LRO4, increasing concentrations of soluble competitor; for competition for LRO4 binding to captured biotinylated P1: 100 ng/mL captured P1; for competition for LRO4 binding to captured biotinylated P2: 100 ng/mL captured P2; for competition for LRO4 binding to coated MAA-BSA: 0.5 μg/mL coated MAA-BSA
Experimental: (§3) The specific binding of LRO4 to mimotopes was determined by competition immunoassays. Fifty μl of 0.5 μg/mL MAA-BSA or 100 ng/mL of biotinylated peptides were plated as described above. LRO4 antibody was incubated in TBS-1% BSA with or without increasing concentrations of competitors (BSA, MAA-BSA, P1, P2 and control peptide) for 30 minutes at RT. Binding of LRO4 was determined by chemiluminescent ELISA. The specificity of human plasma Ab binding to P1 was determined in a similar manner. In preliminary experiments, aliquots of pooled plasma samples (n=26) from a published cohort of healthy subjects were diluted in 1% BSA-TBS to yield a limiting plasma dilution. Diluted plasma (1:1,000) and increasing concentrations of competitors were incubated overnight at 4° C. Samples were then centrifuged at 15,800 g for 45 minutes at 4° C. to pellet immune complexes, and supernatants were analyzed for binding to plated P1 (10 μg/mL) by chemiluminescent ELISA.

[3] = system: human MDA-specific IgG Fab IK17; assay: ELISA for binding of the human monoclonal Fab IK17; conditions: antigens coated; biotinylated IK17 at increasing concentrations
Experimental: ELISA for binding of the human monoclonal Fab IK17. P1, P2, and MAA-BSA were coated onto microtiter plates, and biotinylated IK17 (Biot.IK17) was added at indicated concentrations. Binding was detected by chemiluminescent detection using AP-conjugated neutravidin. Values are given as relative light units (RLU) per 100 ms and represent the mean±SD of triplicate determinations.
as §1, §2

PC-specific IgM mAb EO6 = assay: Chemiluminescent ELISA, binding of EO6 to plated peptides; parameters: species or system murine; conditions: EO6 5 μg/mL; peptides coated at 5-10 μg/mL
Experimental: (A) ELISA for the binding of LRO4 to BSA, MAA-BSA, the P2 mimotope (ACNNSNMPLC-GGGS) (SEQ ID NO:3) and a scrambled peptide (ACSPNLNMNC-GGGS) (SEQ ID NO:4) of P2 (Scr.P2). Peptides were coated at 20 μg/ml, BSA and MAA-BSA at 5 μg/ml, and binding of indicated concentrations of LRO4 was determined by chemiluminescent ELISA as described in Methods. (B) ELISA for binding of LRO4 and EO6. P1, P2, BSA, MAA-BSA, nLDL, MDA-LDL, and CuOx-LDL were coated at 5-10 μg/mL. Binding of LRO4 and EO6 (both at 5 μg/mL) was determined by chemiluminescent ELISA. (C) Immunocompetition assay for the specificity of LRO4. Binding of 0.5 μg/mL LRO4 to 100 ng/mL captured biotinylated peptides P2 was measured by ELISA in the presence of increasing concentrations of P2 and scrambled P2. […]
Binding of mAb as well as plasma Abs to respective antigens was measured by chemiluminescent ELISA. […] Ab binding was measured using alkaline phosphatase (AP) labeled secondary Abs (described below) followed by chemiluminescent detection. […]

[4] = system: human plasma IgG and IgM autoAbs; assay: Chemiluminescent ELISA of human plasma autoAbs to coated mimotopes; format: binding; conditions: n=18 healthy volunteers, plasma 1:400
Experimental: as §1, with “For human assays, internal controls consisting of high and low standard plasma samples were included on each microtiter plate to detect potential variations between microtiter plates. The intra-assay coefficients of variation for all assays were 10 to 14%.” left out
The following secondary Abs were used: Alkaline Phosphatase (AP)-labeled goat anti-mouse IgM (μ-chain specific), IgG (γ-chain specific), IgG1 (Sigma-Aldrich) and IgG2c (Southern Biotech). […] Biotin-conjugated Abs were detected with AP-conjugated neutravidin (1:10,000; Pierce).
Human plasma samples from two independent studies were analyzed for the presence of anti-peptide Abs. […] For these studies, autoAb titers to MDA-LDL as the antigen have already been reported, to allow ready comparisons to the new data generated here. […]
Statistical analyses were performed with GraphPad Prism 5 for Windows (Graphpad Software, Inc., San Diego, Calif.). […] For continuous variables, differences were evaluated by one-way analysis of variances (ANOVA). […]

apoptotic Jurkat T-cells = assay: Flow cytometry, LRO4 binding to apoptotic Jurkat T-cells; format: cell-based; conditions: UV-induced apoptotic Jurkat T-cells; increasing concentrations of soluble peptide
Experimental: Binding of LRO4 IgM to apoptotic Jurkat T-cells was assessed by flow cytometry. Apoptosis of Jurkat cells was induced by UV irradiation (UV Stratalinker, Stratagene, USA) at 20 mJ/cm^2, followed by further incubation of the cells in serum free medium for 14-16 hours. After washing in FACS buffer (PBS with 0.1% BSA) 10^6 cells were incubated with 1 μg LRO4 in 100 μl FACS buffer for 30 minutes at 4° C. In parallel experiments, cells were incubated with LRO4 in the presence of increasing concentrations of P1, P2, and an irrelevant control peptide. Following a washing step, cells were stained with FITC-labeled anti-mouse IgM (II/41, BD Biosciences-Pharmingen) in 100 μL staining buffer for 30 minutes at 4° C. in darkness and washed again. Thereafter, cells were incubated with PE-labeled Annexin-V and 7-AAD (BD Bioscience-Pharmingen) in Annexin-V binding buffer for 15 minutes and immediately analyzed by flow cytometry using a BD LSR II analyzer (BD Bioscience, San Jose, Calif., USA). More than 5.0×10^4 cells were acquired per sample, and data analysis was performed using FlowJo software (Tree Star Inc, San Carlos, Calif., USA).

[5] = system: human plasma IgM and IgG Abs; assay: Immunocompetition assay, human plasma Ab binding to plated P1; conditions: pooled human plasma 1:1,000; increasing concentrations of soluble competitor
Experimental: as §3

| binding of LRO4 to plated peptides (LRO4 [1]) | competition for LRO4 binding to captured biotinylated P1 (LRO4 [2]) | competition for LRO4 binding to captured biotinylated P2 (LRO4 [2]) | competition for LRO4 binding to coated MAA-BSA (LRO4 [2]) | binding of IK17 [3] | binding of EO6 to plated peptides (PC-specific IgM mAb EO6) | inhibition of binding of IgM and IgG Abs to plated P1 [5] | Substance | IgG and IgM titers in plasma of healthy volunteers [4] | inhibition of LRO4 binding to apoptotic cells (apoptotic Jurkat T-cells) |
| --- | --- | --- | --- | --- | --- | --- | --- | --- | --- |
| bound by LRO4 in a dose dependent manner | did not compete | did not compete | did not have an effect | in a dose-dependent manner | did not react | – | HSWTNSWMATFL (not fully specified (C-terminus)) [P1] | Plasma of all individuals contained both IgG and IgM titers | – |
| bound by LRO4 in a dose dependent manner | fully competed | fully competed | effectively competed | in a dose-dependent manner | did not react | – | ACNNSNMPLC (disulfide 2-10 (inferred); not fully specified (C-terminus)) [P2] | Plasma of all individuals contained both IgG and IgM titers | fully inhibited |
| – | had no effect | had no effect | – | – | – | – | IMGVGAVGAGAI (Control peptide) [irrelevant control peptide, reference compound] | – | not |
| – | fully competed | fully competed | effectively competed | bound | – | nearly completely inhibited | MAA-BSA: malondialdehyde-acetaldehyde (MAA)-modified BSA [reference compound] | – | – |
